ChEMBL document CHEMBL1147034, “Synthesis and evaluation of 2',4',6'-trihydroxychalcones as a new class of tyrosinase inhibitors” (Bioorg Med Chem, 2007)

What was measured:
[1] = target: T1, Tyrosinase (Agaricus bisporus) (UniProt O42713); assay: Inhibition of mushroom tyrosinase at 400 uM
T1 sequence (whole entry): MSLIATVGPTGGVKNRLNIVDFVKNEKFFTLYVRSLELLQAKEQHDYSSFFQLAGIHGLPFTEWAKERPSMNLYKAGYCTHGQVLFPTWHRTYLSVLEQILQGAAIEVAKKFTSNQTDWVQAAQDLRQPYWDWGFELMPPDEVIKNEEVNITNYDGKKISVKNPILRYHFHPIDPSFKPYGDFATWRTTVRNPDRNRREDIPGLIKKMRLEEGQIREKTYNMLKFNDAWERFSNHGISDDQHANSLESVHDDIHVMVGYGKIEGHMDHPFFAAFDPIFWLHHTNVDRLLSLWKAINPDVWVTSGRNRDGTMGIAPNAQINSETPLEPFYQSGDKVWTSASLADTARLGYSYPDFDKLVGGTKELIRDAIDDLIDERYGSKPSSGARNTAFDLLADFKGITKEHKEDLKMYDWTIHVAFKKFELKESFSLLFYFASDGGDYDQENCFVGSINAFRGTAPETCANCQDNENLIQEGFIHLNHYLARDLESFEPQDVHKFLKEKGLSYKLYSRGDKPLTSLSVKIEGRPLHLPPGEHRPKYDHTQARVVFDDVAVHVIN

Tyrosinase = target: T2, Tyrosinase (Agaricus bisporus, UniProt O42713)
T2 sequence (O42713 whole entry): T1 sequence (whole entry)

Row | SMILES | inhibition [1] [%] | IC50 (Tyrosinase) [µM] | Ki (Tyrosinase) [µM]
1 | O=C(/C=C/c1ccccc1)c1c(O)cccc1O | < 20 | – | –
2 | O=C(/C=C/c1ccc(O)c(O)c1)c1ccc(O)c(O)c1 | < 20 | – | –
3 | O=C(/C=C/c1ccccc1)c1ccc(O)cc1O | < 20 | – | –
4 | O=C(/C=C/c1ccc(O)cc1O)c1ccc(O)cc1O | – | 5 | –
5 | O=C(/C=C/c1ccc(O)c(O)c1)c1ccccc1O | < 20 | – | –
6 | O=C(/C=C/c1cc(O)c(O)c(O)c1)c1c(O)cc(O)cc1O | – | 200 | –
7 | O=C(/C=C/c1cccc(O)c1O)c1c(O)cc(O)cc1O | – | 193 | –

Continued, values first:

Row | inhibition [1] [%] | IC50 (Tyrosinase) [µM] | Ki (Tyrosinase) [µM] | SMILES
8 | < 20 | – | – | COc1cc(O)c(C(=O)/C=C/c2cc(O)c(O)c(O)c2)c(OC)c1
9 | 72 | 1 | 3.1 | O=C(/C=C/c1ccc(O)cc1O)c1c(O)cc(O)cc1O
10 | < 20 | – | – | COc1cc(O)c(C(=O)/C=C/c2ccc(O)c(O)c2)c(OC)c1
11 | – | 3.1 | – | COc1cc(O)cc(O)c1C(=O)/C=C/c1ccc(O)cc1O
12 | – | 150 | – | COc1ccc(/C=C/C(=O)c2c(O)cc(O)cc2O)cc1OC
13 | < 20 | – | – | COc1cc(O)c(C(=O)/C=C/c2cccc(O)c2O)c(OC)c1
14 | < 20 | – | – | O=C(/C=C/c1ccc(O)c(O)c1)c1c(O)cc(O)cc1O
